Reference: patent EP0576766A1, “Propanolamine derivatives, their preparation and use” (NOVO NORDISK A/S, priority 1992, dated 1994)
Structures can show the parent of a compound that is named as a salt.

System: voltage operated calcium channels (VOC)
Assay: Inhibition of depolarization-stimulated 45Ca uptake into brain synaptosomes
Type: biochemical
Settings: inhibition of stimulated uptake of ⁴⁵Ca in depolarized (145 mM KCl) rat cerebral cortex synaptosomes (P₂ fraction), corrected for basal uptake; 15 s incubation; estimated from dose response curves
Description: The pharmacological properties of the compounds of the invention can be illustrated by determining their capability to inhibit calcium uptake into brain synaptosomes.
Depolarization of neuronal membranes leads to an opening of socalled "voltage operated calcium channels" (VOC) in the membranes which allows a massive influx of calcium from the extracellular space. A crude synaptosomal preparation (socalled P₂ fraction) contains small vesicles surrounded by neuronal membrane and it is possible in such a preparation to study a depolarization-induced opening of VOC.
A male Wistar rat is decapitated and the cerebral cortex removed and homogenized in 10 ml. of ice-cold 0.32 M sucrose using a glass homogenizer with a teflon pestle. All subsequent steps for isolation of synaptosomes are done at 0-4°C. The homogenate is centrifuged at 1000 x g for 10 min and the resulting supernatant is re-centrifuged at 18000 x g for 20 min. This pellet (P₂) is resuspended in 0.32 M sucrose (5 ml per g of original tissue) with a teflon pestle.
The tubes are pre-incubated for 30 min on ice and then for 6 min at 37°C in a water bath.
The incubation is continued for 15 s.
The amount of radioactivity on the filter disc is determined by liquid scintillation spectrometry.
Test substances are dissolved in 10 ml of 48% ethanol at a concentration of 0.44 mg/ml. Dilution are made in 48% ethanol to give final concentrations of 0.1, 0.3, 1, 3 and 10 µg/ml. Experiments are performed in triplicate. Controls for depolarized and nondepolarized samples are included in the assay and test substances are only tested in depolarized samples.
The test value will be given as IC₅₀ (the concentration (µg/ml) of test substance which inhibit 50% of stimulated uptake of ⁴⁵Ca (uptake in depolarized samples corrected for basal uptake in nondepolarized samples )). The IC₅₀ value is estimated from dose response curves.

`Cl.c1ccc(C(CCN2CCOCC2)Oc2ccc3c(c2)CCC3)cc1` (stereo not drawn) [Compound 2, 4-(3-(5-Indanyloxy)-3-phenylpropyl)morpholine, hydrochloride] and `FC(F)(F)c1ccc(OC(CCN2CCOCC2)c2ccccc2)cc1.O=C(O)C(=O)O` (stereo not drawn) [Compound 3, 4-(3-Phenyl-3-(4-trifluoromethylphenoxy)propyl)morpholine, oxalate] are within 1.5-fold of each other in IC₅₀: 16 µg/mL for the first, 17 µg/mL for the second.

`CN(C)CCC(Oc1ccc2c(c1)CCCC2)c1ccc([N+](=O)[O-])cc1.Cl` (stereo not drawn) [Compound 17, N,N-dimethyl-3-(4-nitrophenyl)-3-(5,6,7,8-tetrahydro-2-naphthoxy)propanamine, hydrochloride] and `CN(C)CCC(Oc1cccc(C(F)(F)F)c1)c1ccc([N+](=O)[O-])cc1.Cl` (stereo not drawn) [Compound 15, N,N-dimethyl-3-(4-nitrophenyl)-3-(3-trifluoromethylphenoxy)propanamine, hydrochloride] are within 1.5-fold of each other in IC₅₀: 4.9 µg/mL for the first, 6.1 µg/mL for the second.

`CN1CCN(CCC(Oc2ccc(C(F)(F)F)cc2)c2ccccc2)CC1` (stereo not drawn) [Compound 5, 1-(3-Phenyl-3-(4-trifluoromethylphenoxy)propyl)-4-methyl piperazine, oxalate] and `CC(=O)Nc1cccc(C(CCN2CCCCC2)Oc2ccc(C(F)(F)F)cc2)c1.O=C(O)C(=O)O` (stereo not drawn) [Compound 24, 1-(3-(3-Acetamidophenyl)-3-(4-trifluoromethylphenoxy)propyl)piperidine, oxalate] are within 1.5-fold of each other in IC₅₀: 7.5 µg/mL for the first, 5.3 µg/mL for the second.

Going from `FC(F)(F)c1ccc(OC2c3ccccc3CC2CN2CCCCC2)cc1` (stereo not drawn) [Compound 20, trans-1-(1-(4-Trifluoromethylphenoxy)indan-2-yl)methyl piperidine, hydrochloride] to `N#Cc1ccc(C(CCN2CCCCC2)Oc2ccc(C(F)(F)F)cc2)cc1.O=C(O)C(=O)O` (stereo not drawn) [Compound 25, 1-(3-(4-Cyanophenyl)-3-(4-trifluoromethylphenoxy)propyl)piperidine, oxalate], the IC₅₀ falls from 8.0 µg/mL to 2.2 µg/mL (3.6-fold).

Compound `CC(=O)Nc1ccc(C(CCN2CCCCC2)Oc2ccc(C(F)(F)F)cc2)cc1.O=C(O)C(=O)O` (stereo not drawn) [Compound 23, 1-(3-(4-Acetamidophenyl)-3-(4-trifluoromethylphenoxy)propyl)piperidine, oxalate] has an IC₅₀ of 4.0 µg/mL.
